Assay results as given in paper PMC6959289, “Development of a Biosensor for Detection of Benzoic Acid Derivatives in Saccharomyces cerevisiae” (Frontiers in Bioengineering and Biotechnology, 2020).

Each compound was assayed against T1, sBAD (formerly sHbaR); LexA-HbaR ligand-binding domain-B112 synthetic transcription factor (Rhodopseudomonas palustris, UniProt Q9RFR5) (assay: mCitrine reporter activation in yeast, flow cytometry, dose-response).
T1 construct: expressed in S. cerevisiae CEN.PK 2C-1
T1 sequence (Q9RFR5 1-241 limits assumed): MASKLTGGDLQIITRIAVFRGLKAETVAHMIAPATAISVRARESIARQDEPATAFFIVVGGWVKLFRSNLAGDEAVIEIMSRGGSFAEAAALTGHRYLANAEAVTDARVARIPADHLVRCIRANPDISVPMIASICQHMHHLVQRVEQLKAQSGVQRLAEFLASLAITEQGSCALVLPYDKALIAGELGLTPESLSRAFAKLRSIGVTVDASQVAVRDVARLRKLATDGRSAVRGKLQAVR
Type: cell-based, Saccharomyces cerevisiae
Description: mCitrine reporter activation in yeast, flow cytometry, dose-response on sBAD (formerly sHbaR); LexA-HbaR ligand-binding domain-B112 synthetic transcription factor

EC50 [µM]	SMILES
749 ± 399	O=C(O)c1ccc(O)cc1 [HBA, 4-hydroxybenzoic acid]
169 ± 81	Nc1ccc(C(=O)O)cc1 [pABA, 4-aminobenzoic acid]
47 ± 20	O=C(O)c1ccccc1 [benzoic acid]
598 ± 283	CC(=O)Oc1ccccc1C(=O)O [aspirin]
